# Tested on: miR-430 target site
# Experiment: microRNA sensor (Ago2 fused to Adar catalytic subunit)
# Format: in vivo, zebrafish
# Procedure: In this case, the writer comprises a protein fusion between a protein from the Argonaute family and the catalytic domain of the RNA-editing enzyme ADAR. The recorder must contain the target site of the microRNA of interest, usually the 6 to 8 nucleotides complementary to the miRNA seed region. In the presence of the writer, the recorder and the miRNA of interest, the ternary interaction is recorded as RNA editing in the recorder mRNA. The number of edits will be proportional to the strength of the microRNA-target site interaction. Other variants of this approach include expressing the Ago-Adar writer together with a library of recorders that containing all possible 8-nucleotide sequences as binding site. […]
# FIG. 18 depicts a microRNA sensor. miR-430 is a small non-coding regulatory microRNA that recognize their targets mRNAs trough interaction and pairing. miR-430 binds to the effector protein Ago2 and together form a riboprotein complex that recognizes and binds to target mRNAs. miR-430 is the only microRNA expressed during early embryogenesis. […] Only with the tertiary interaction between Ago2, a microRNA, and the target is reconstituted, is editing detected.
# Usage of the interactome recorder system to determine microRNA activity in vivo (FIG. 8A). […] In the presence of the writer, the recorder and the miRNA of interest, the ternary interaction is recorded as RNA editing in the recorder mRNA. […]
smiles,measurement,setting,value
CC[C@H](C)[C@@H]1NC(=O)CNC(=O)[C@@H]2Cc3c([nH]c4cc(O)ccc34)[S+]([O-])C[C@@H](NC(=O)CNC1=O)C(=O)N[C@@H](CC(N)=O)C(=O)N1C[C@H](O)C[C@H]1C(=O)N[C@@H]([C@@H](C)[C@@H](O)CO)C(=O)N2 (stereo partly drawn) [alpha-Amanitin],editing of the recorder,embryos injected with alpha-Amanitin,not when endogenous miR-430 expression is inhibited
same,miR-430 expression,"injection, early embryogenesis",prevents its expression

# Source: patent US12258625B2, “Compositions and methods relating to nucleic acid interaction reporters” (Trustees of Boston University, priority 2022, dated 2025)
